From patent US9873715B2, “Macrolides useful as anticancer agents” (PIERRE FABRE MEDICAMENT, priority 2013, dated 2018) come the findings set out here.

Molecules are shown by their SMILES. A value given as a limit tells only on which side of the number the result lay.

Holding throughout (assay type): cell-based
Assay [1] relates to KB-V1: vinblastine-resistant human cervix carcinoma cell line. Nature of the assay: cell survival (ATP-lite luminescence), KB-V1. To be noted: KB-V1, 48 hours incubation, read-out: EC50 for various tumor cell lines: KB-V1. How it is done:
(§1) Molecules (I-1), (I-2) and (I-3) were identified during a test of antiproliferative activity on a metastatic melanoma cell line, WM266-4.
(§2) The cells are seeded in 96-well plates in phenol red-free RPMI 1640 medium (Seromed) to which is added 10% fetal calf serum (100 μl/well, 1·10^4 to 3·10^4 cells/ml depending on the line studied). After incubation for 24 hours at 37° C. in an incubator (5% CO2), the medium is replaced with the same medium further containing the compound to be tested (various concentrations are used) and then the plates are incubated for an additional 48 hours. Cell survival is evaluated by measuring luminescence after ATP release in the medium using the cell lysis solutions, luciferase and luciferin, included in the ATP-lite-M™ kit as recommended by the manufacturer (Packard, Rungis, France). Each experimental condition was tested at least three times in sextuplicate.

Assay [2] deals with A549: human lung adenocarcinoma cell line. Kind of assay: cell survival (ATP-lite luminescence), A549. To be noted: A549, 48 hours incubation, read-out: EC50 for various tumor cell lines: A549. How it is done:
as §1, §2

Assay [3] relates to BxPC3: human pancreatic adenocarcinoma cell line. Nature of the assay: cell survival (ATP-lite luminescence), BxPC3. To be noted: BXPC-3, BxPC3, 48 hours incubation, read-out: EC50 for various tumor cell lines: BxPC3. How it is done: as §1, §2
Assay [4] concerns KB: human oral carcinoma cell line. Kind of assay: cell survival (ATP-lite luminescence), KB. To be noted: 48 hours incubation, read-out: EC50 for various tumor cell lines: KB. How it is done:
as §1, §2

The subject of assay [5] is SkoV3: human ovarian adenocarcinoma cell line. Kind of assay: cell survival (ATP-lite luminescence), SkoV3. Conditions: SK-OV-3, SkoV3, 48 hours incubation, read-out: EC50 for various tumor cell lines: SkoV3. How it is done:
as §1, §2

In assay [6] the test system is LoVo: human colon adenocarcinoma cell line. Nature of the assay: cell survival (ATP-lite luminescence), LoVo. To be noted: 48 hours incubation, read-out: EC50 for various tumor cell lines: LoVo. As for the experimental part: as §1, §2
For assay [7], the system named is Namalwa: Burkitt lymphoma cell line. Kind of assay: cell survival (ATP-lite luminescence), Namalwa. Conditions: 48 hours incubation, read-out: EC50 for various tumor cell lines: Namalwa. As for the experimental part:
as §1, §2

As a reminder, the EC50 is the concentration giving half of the maximal effect.

Take `COCC1OC(OC2CC(OC)CC3C2C(C)=CC2/C=C/C=C/C(C)C(/C=C/c4nc(C(C)CCCC#N)oc4C)OC(=O)CC/C=C(C)\C=C\C23C)C(OC)C(OC2OCC(OC)C(O)C2O)C1O` (stereo not drawn) [Molecule (I-2)]: the EC50 in assay [1] was 0.49 nM; in assay [2], less than 0.001 nM; in assay [3], 0.21 nM; in assay [4], 0.3 nM; in assay [5] it was 1300 nM; in assay [6], 0.011 nM. Besides, the EC50 in assay [7] amounted to 0.36 nM.
As for `CNC(=O)OC1C(OC)COC(OC2C(O)C(COC)OC(OC3CC(OC)CC4C3C(C)=CC3/C=C/C=C/C(C)C(/C=C/c5nc(C(C)CCCC#N)oc5C)OC(=O)CC/C=C(C)\C=C\C34C)C2OC)C1O` (stereo not drawn) [Molecule (I-3)], the EC50 in assay [1] is 0.73 nM; in assay [2] it was less than 0.001 nM; in assay [3] it was 0.012 nM; in assay [4], 0.024 nM; in assay [5], 320 nM; in assay [6] it was less than 0.01 nM. For the same compound, the EC50 in assay [7] was 0.32 nM.
Regarding `COCC1OC(OC2CC(OC)CC3C2C(C)=CC2/C=C/C=C/C(C)C(/C=C/c4nc(C(C)CCCC#N)oc4C)OC(=O)CC/C=C(C)\C=C\C23C)C(OC)C(O)C1O` (stereo not drawn) [Molecule (I-1)], the EC50 in assay [1] came out at 0.7 nM; in assay [2], 0.011 nM; in assay [3] it was 0.22 nM; in assay [4], 0.31 nM; in assay [5], 36000 nM; in assay [6] it was 0.04 nM. In addition, the EC50 in assay [7] was found to be 0.31 nM.
